Results: ChEMBL document CHEMBL1201862, “PubChem BioAssay data set” (2004)
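In this assay, cells in 96-well plates receive the compound at five concentrations for 48 hours. Endpoints are linearly interpolated between the surrounding concentrations. The concentration for 50% growth inhibition is given as GI50.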 Calls of active or inactive are those of the source. Rule as the data show it: active = GI50 up to about 1.1 µM and inactive = higher.

Assays:
Test in all cases: DTP human tumour cell line panel, 48 h
A498 = tested on: A498
DU-145 = tested on: DU-145
EKVX = tested on: EKVX
HCT-116 = tested on: HCT-116
Hs-578T = tested on: Hs-578T
LOX IMVI = tested on: LOX IMVI
Malme-3M = tested on: Malme-3M
NCI-H23 = tested on: NCI-H23
NCI-H460 = tested on: NCI-H460
NCI/ADR-RES = tested on: NCI/ADR-RES
OVCAR-4 = tested on: OVCAR-4
PC-3 = tested on: PC-3
SF-295 = tested on: SF-295
SF-539 = tested on: SF-539
SK-MEL-2 = tested on: SK-MEL-2
SN12C = tested on: SN12C
SNB-19 = tested on: SNB-19
U-251 = tested on: U-251
UACC-62 = tested on: UACC-62
UO-31 = tested on: UO-31

SMILES | GI50 (A498) | GI50 (DU-145) | GI50 (EKVX) | GI50 (HCT-116) | GI50 (Hs-578T) | GI50 (LOX IMVI) | GI50 (Malme-3M) | GI50 (NCI-H23) | GI50 (NCI-H460) | GI50 (NCI/ADR-RES) | GI50 (OVCAR-4) | GI50 (PC-3) | GI50 (SF-295) | GI50 (SF-539) | GI50 (SK-MEL-2) | GI50 (SN12C) | GI50 (SNB-19) | GI50 (U-251) | GI50 (UACC-62) | GI50 (UO-31)
O=[N+]([O-])c1ccc2c(c1)C1=NN(c3ccccc3)C(c3ccccc3Br)C1CCC2 (stereo not given) | 12.1 µM (inactive) | 16300 nM (inactive) | 20500 nM (inactive) | 12400 nM (inactive) | 48.1 µM (inactive) | 19900 nM (inactive) | 24800 nM (inactive) | 18700 nM (inactive) | 22600 nM (inactive) | 12.7 µM (inactive) | 19900 nM (inactive) | 31200 nM (inactive) | 17900 nM (inactive) | 19.1 µM (inactive) | 24.7 µM (inactive) | 24600 nM (inactive) | 25.7 µM (inactive) | 25300 nM (inactive) | 9620 nM (inactive) | 20.6 µM (inactive)
COc1ccccc1NC(=S)N/N=C(/c1ccccc1)c1ccccn1 | 1.38 µM (inactive) | 325 nM (active) | 96.8 nM (active) | < 14.7 nM (active) | 7.05 µM (inactive) | 25.4 nM (active) | 167 nM (active) | < 13 nM (active) | 158 nM (active) | 0.0853 µM (active) | 710 nM (active) | < 14.2 nM (active) | 261 nM (active) | 1.37 µM (inactive) | 4.4 µM (inactive) | 685 nM (active) | 2.6 µM (inactive) | 63.5 nM (active) | 273 nM (active) | 0.2 µM (active)
C[N+](C)([O-])CCCNc1c2ccccc2nc2cccc([N+](=O)[O-])c12 | 0.164 µM (active) | 299 nM (active) | 280 nM (active) | 228 nM (active) | 0.938 µM (active) | 510 nM (active) | 173 nM (active) | 156 nM (active) | 142 nM (active) | 8.2 µM (inactive) | 288 nM (active) | 219 nM (active) | 592 nM (active) | 1.07 µM (active) | 0.214 µM (active) | 265 nM (active) | 0.409 µM (active) | 305 nM (active) | 219 nM (active) | 1.41 µM (inactive)
